These results are taken from the NIST ThermoML archive (doi:10.1016/j.tca.2014.04.012).

The conditions of this series: Crystal; visual observation.

Numbers after ± are expanded uncertainties.

`CCN1C(=O)N(CC)C2NC(=O)NC21` (configuration not stated): the Normal melting temperature was 310.00 ± 2 °C.

`CN1C(=O)N(C)C2NC(=O)NC21` (configuration not stated): the Normal melting temperature is 260.00 ± 2 °C.
